PMC4583543, “Development and Validation of a Novel Leishmania donovani Screening Cascade for High-Throughput Screening Using a Novel Axenic Assay with High Predictivity of Leishmanicidal Intracellular Activity” (PLoS Neglected Tropical Diseases, 2015)

Experiments:
[1] = test system: eGFP expressing LdBOB amastigote-like cells in PMA differentiated THP-1 cells; experiment: Intramacrophage (intracellular, INMAC) assay; format: cell-based, Leishmania donovani; conditions: reference compound panel, mean (standard deviation), minimum three independent repeats, four day incubation; for EC50: Leishmania donovani, THP-1, 96 h, read-out: Intramacrophage (potency, pEC50) (converted)
Description: (§1) Compounds were dispensed into 384-well assay plates by acoustic dispensing (LabCyte ECHO). […] Potencies are reported as pEC50 (-LOG(EC50[M])).
(§2) All data was processed using IDBS ActivityBase. […] Potency plates were normalised to DMSO control (0% effect) and 2μM amphotericin B control (100% effect). […] For compounds with low activity and poor definition of the curve top, B was fixed to 100. For the determination of the reference compound panel potency, all experiments were carried out with a minimum of three independent repeats.
(§3) The assay conditions are described previously. Briefly PMA differentiated THP-1 cells were infected overnight with eGFP expressing LdBOB amastigote-like cells at a multiplicity of infection of 5. Next, any remaining free amastigote-like cells are removed and compounds are added. The microscopy-based read-out is done after a four day compound incubation.

THP-1 cells = experiment: THP-1 host cell toxicity in the intramacrophage assay; format: cell-based, human; conditions: reference compound panel, mean (standard deviation), host cell toxicity; for EC50: Homo sapiens, THP-1, read-out: THP-1 (potency, pEC50) (converted)
Description: as §1, §2, §3

[2] = test system: LdBOB axenic amastigote-like cells; experiment: Novel (cidal) axenic amastigote assay, BacTiter-Glo read-out; format: cell-based, Leishmania donovani; conditions: for EC50: Leishmania donovani, read-out: Novel (axenic assay potency, pEC50) (converted)
Text: Leishmania donovani BOB cells (LdBOB) used in this study are a cloned line from strain MHOM/SD/62/1S-CL2 [13]. Cultures were maintained as described previously. Compounds were dispensed into 384-well assay plates by acoustic dispensing (LabCyte ECHO). […] Potencies are reported as pEC50 (-LOG(EC50[M])). All data was processed using IDBS ActivityBase. […] For compounds with low activity and poor definition of the curve top, B was fixed to 100. For the determination of the reference compound panel potency, all experiments were carried out with a minimum of three independent repeats. Test compounds were pre-dispensed into white 384 well plates (Corning). For library screens one compound per well was tested at the indicated final concentration. […] DMSO, zero percent effect control: cells at starting concentration. The zero percent effect control wells are left empty during the course of the assay. […] The assay volume is 25 μl / well. […] Plates were then sealed with clear film and relative luminescence was detected using a plate reader (Victor 3) from Perkin Elmer or PHERAstar FS from BMG LABTECH, with 0.5 s detection time per well).

[3] = parameters: method as in PMID 197231; conditions: cited from earlier work
[4] = cited from earlier work
HepG2 cells = experiment: HepG2 assay (mammalian counterscreen, resazurin); format: cell-based, human; conditions: reference compound panel, mean (standard deviation), 72 h; for EC50: Homo sapiens, HepG2, read-out: HepG2 (potency, pEC50) (converted)
Description: Compounds were dispensed into 384-well assay plates by acoustic dispensing (LabCyte ECHO). […] Potencies are reported as pEC50 (-LOG(EC50[M])). All data was processed using IDBS ActivityBase. […] For compounds with low activity and poor definition of the curve top, B was fixed to 100. For the determination of the reference compound panel potency, all experiments were carried out with a minimum of three independent repeats. The assay conditions are described previously.

Row | Structure (SMILES) | EC50 [1] [µM] | EC50 (THP-1 cells) [µM] | EC50 [2] [µM] | activity in words (novel axenic versus intracellular) ([2]; reference compound panel) | stability in serum [3] | aqueous solubility [4] | EC50 (HepG2 cells) [µM] | Intramacrophage (potency, pEC50) [1] | THP-1 (potency, pEC50) (THP-1 cells) | Novel (axenic assay potency, pEC50) ([2]; reference compound panel, mean (standard deviation), minimum three independent repeats, top concentration 50 μM, pEC50 = -LOG(EC50[M])) | HepG2 (potency, pEC50) (HepG2 cells)
1 | CCN(CC)C(=S)SSC(=S)N(CC)CC [Disulfiram] | > 34.7 | > 34.7 | 0.363 | only active in the novel axenic assay | unstable in serum | poor | 45.7 | – | – | – | –
2 | C[C@@H]1[C@H](O)[C@@H](C)/C=C/C=C/CC/C=C/C=C/C=C/C=C/C(O[C@H]2O[C@H](C)[C@@H](O)[C@H](N)[C@@H]2O)CC2O[C@](O)(CC(O)C(O)CCC(O)CC(O)CC(O)CC(=O)O[C@H]1C)CC(O)C2C(=O)O (stereo partly shown) [Nystatin] | – | – | – | – | – | – | – | 4.68 (0.5) | < 4.46 | 5.19 (0.21) | < 4.3
3 | NC[C@@H]1O[C@H](O[C@H]2[C@@H](O)[C@H](O[C@@H]3[C@@H](O)[C@H](N)C[C@H](N)[C@H]3O[C@H]3O[C@H](CO)[C@@H](O)[C@H](O)[C@H]3N)O[C@@H]2CO)[C@H](N)[C@@H](O)[C@@H]1O [Paromomycin] | > 34.7 | > 34.7 | > 50.1 | – | – | – | > 50.1 | – | – | – | –
4 | N=C(N)c1ccc(OCCCCCOc2ccc(C(=N)N)cc2)cc1 [Pentamidine] | 15.5 | > 34.7 | 8.71 | – | – | – | 2.82 | – | – | – | –
5 | CC[C@@H]([C@H](C)O)n1ncn(-c2ccc(N3CCN(c4ccc(OC[C@@H]5CO[C@@](Cn6cncn6)(c6ccc(F)cc6F)C5)cc4)CC3)cc2)c1=O [Posaconazole] | 18.6 | 17.8 | 36.3 | – | – | – | 8.51 | – | – | – | –
6 | NC(=O)c1cnccn1 [Pyrazinamide] | > 34.7 | > 34.7 | > 50.1 | – | – | – | > 50.1 | – | – | – | –
7 | Cc1ccc(C(=O)Nc2ccc(S(=O)(=O)O)c3cc(S(=O)(=O)O)cc(S(=O)(=O)O)c23)cc1NC(=O)c1cccc(NC(=O)Nc2cccc(C(=O)Nc3cc(C(=O)Nc4ccc(S(=O)(=O)O)c5cc(S(=O)(=O)O)cc(S(=O)(=O)O)c45)ccc3C)c2)c1 [Suramin] | > 34.7 | > 34.7 | > 50.1 | – | – | – | > 50.1 | – | – | – | –
